Reference: patent US20150328220A1, “METHODS OF TREATING CHRONIC KIDNEY DISEASE CHARACTERIZED BY MACROALBUMINURIA” (Concert Pharmaceuticals, Inc., priority 2014, published 2015)

Key:
Type in all cases: in vivo, human
[1] = test system: patients with type 2 diabetic kidney disease and macroalbuminuria; assay: Phase 2 placebo-controlled clinical trial, 48 weeks: serum creatinine levels; settings: for patients who experienced a 50% or greater increase in serum creatinine levels: after 48 weeks
Method: (§1) A Phase 2 placebo-controlled clinical trial of Compound (V) was conducted in patients with type 2 diabetic kidney disease and macroalbuminuria. All patients enrolled in the clinical trial were concurrently treated with angiotensin modulators. The purpose of the trial was to compare Compound (V) to placebo in terms of safety and efficacy with respect to measures of renal function such as UACR, serum creatinine levels, and estimated glomerular filtration rate.
(§2) The clinical trial consists of three parts, two of which were completed and a third part that is on-going. Part 1 was a double-blind, parallel, two-arm, placebo-controlled study evaluating the safety and efficacy of 600 mg of Compound (V) twice daily for 24 weeks. 182 patients were enrolled in this first part of the trial and 151 patients completed Part 1. Part 2 was a blinded 24-week extension study in which all patients who completed Part 1 were eligible to continue receiving 600 mg of Compound (V) or placebo twice daily. 143 patients were enrolled in this part of the clinical trial and have completed dosing. 123 of the 143 patients that were enrolled in Part 2 of the clinical trial completed Part 2. The combined 48 weeks of data from Parts 1 and 2 of the clinical trial have been analyzed. 102 patients enrolled in Part 3 which is a 48 week open-label extension study that is on-going. All patients who completed Part 2 were eligible to receive 600 mg of Compound (V) twice daily.
The key criteria for patients to be included in the clinical trial were (a) eGFR from 23 to 89 mL/min/1.73 m^2, a measure of kidney function which indicates mild to moderately severe type 2 diabetic kidney disease; (b) having been on a stable angiotensin modulation regimen for a minimum of four weeks prior to initiating screening and nine weeks prior to initiating dosing; (c) blood pressure less than or equal to 145/90 mm Hg; (d) glycosylated hemoglobin A1c (HbA1c) less than or equal to 10.5%, and (e) UACR greater than or equal to 200 mg/g in male patients and 300 mg/g in female patients, ratios of albumin to creatinine that are indicative of substantial kidney damage in men and women, but not more than 5,000 mg/g, a ratio indicative of severe kidney disease.

urinary fibronectin = assay: Phase 2 placebo-controlled clinical trial, 48 weeks: urinary fibronectin (fibrotic biomarker)
Method: as §1
as §2, with “All patients who completed Part 2 were eligible to receive 600 mg of Compound (V) twice daily.” left out

plasma collagen IV = assay: Phase 2 placebo-controlled clinical trial, 48 weeks: plasma collagen IV (fibrotic biomarker); settings: week 48 (FIG. 3)
Method: as §1
as §2, with “All patients who completed Part 2 were eligible to receive 600 mg of Compound (V) twice daily.” left out

[2H]C([2H])([2H])[C@H](O)C([2H])([2H])CCCn1c(=O)c2c(ncn2C)n(C)c1=O [Compound (V)]
increase in mean serum creatinine level over the 48 weeks of treatment ([1]; 600 mg twice daily, 48 weeks, 65 patients, overall population, preliminary analysis): 0.13 mg/dL
patients who experienced a 50% or greater increase in serum creatinine levels ([1]; overall population, one out of 65 patients, p=0.026 vs placebo, post-hoc): 1.5%
patients who experienced a 50% or greater increase in serum creatinine levels ([1]; subpopulation having UACR greater than 850 mg/g, one out of 31 patients, p<0.0409 vs placebo): 3.1%
improvement in serum creatinine increase as compared to placebo ([1]; at 48 weeks, 600 mg twice daily, p=0.057 two-tailed): 38%
less urine fibronectin versus placebo (urinary fibronectin; week 48, overall population (FIG. 1)): 59%
decrease in urine fibronectin relative to placebo (urinary fibronectin; week 48, subpopulation having UACR greater than 850 mg/g, p<0.01 (FIG. 2)): 73%
less plasma collagen IV versus placebo (plasma collagen IV): 18%
